According to ChEMBL document CHEMBL1142472, “New ferrocenic pyrrolo[1,2-a]quinoxaline derivatives: synthesis, and in vitro antimalarial activity” (Bioorg Med Chem, 2008):
Activity calls are given as the source filed them. No cut-off for these calls is given here.

Target: T1, Histidine-rich protein PFHRP-II (Plasmodium falciparum) (UniProt P05227)
T1 sequence (whole entry): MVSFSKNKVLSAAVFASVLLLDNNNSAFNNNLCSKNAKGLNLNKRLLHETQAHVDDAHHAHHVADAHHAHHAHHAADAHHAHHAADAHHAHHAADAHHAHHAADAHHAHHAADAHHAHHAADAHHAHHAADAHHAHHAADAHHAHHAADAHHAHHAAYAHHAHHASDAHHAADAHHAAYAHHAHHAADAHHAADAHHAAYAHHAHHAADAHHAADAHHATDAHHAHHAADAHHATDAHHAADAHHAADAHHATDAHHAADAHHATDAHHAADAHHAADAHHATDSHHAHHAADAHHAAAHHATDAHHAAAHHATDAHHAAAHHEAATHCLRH
Assay: Inhibition of beta-hematin formation assessed as drug: hematin molar ratio causing inhibition of hem polymerization after 24 hrs by HPIA method
Assay type: functional

SMILES | Activity | Ratio IC50
COc1cc(NS(=O)(=O)c2ccc(N)cc2)nc(OC)n1 | inactive | –
C[C@@H]1CC[C@H]2[C@@H](C)C(=O)O[C@@H]3O[C@@]4(C)CC[C@@H]1[C@]32OO4 | – | 1.5
